Calls of active or inactive are those of the source. The calls are words filed in the database; no cut-off is given here.
Experiments:
[1] = tested on: MGC-803; test: Induction of apoptosis in human MGC-803 cells assessed as early apoptotic cells at 24 micromol/L for 48 hrs by annexinV-FITC/PI staining based flow cytometric analysis (reference value: 2.92%); assay type: functional; settings: dose 24 µmol/L, at 24 µM
[2] = tested on: MGC-803; test: Induction of mitochondrial membrane potential depolarization in human MGC-803 assessed as early apoptotic cells measured at 16 micromol/L for 20 mins by JC-1 staining based flow cytometric analysis (reference value: 4.52%); assay type: functional; settings: dose 16 µmol/L, at 16 µM
[3] = tested on: MGC-803; test: Induction of apoptosis in human MGC-803 cells assessed as necrotic cells at 16 micromol/L for 48 hrs by annexinV-FITC/PI staining based flow cytometric analysis (reference value: 0.22%); assay type: functional; settings: dose 16 µmol/L, at 16 µM
[4] = tested on: MGC-803; test: Induction of mitochondrial membrane potential depolarization in human MGC-803 assessed as necrotic cells measured at 24 micromol/L for 20 mins by JC-1 staining based flow cytometric analysis (reference value: 0.00%); assay type: functional; settings: dose 24 µmol/L, at 24 µM
[5] = molecular target: T1, Lysine-specific histone demethylase 1A (Homo sapiens, UniProt O60341); test: Inhibition of LSD1 in human MGC-803 cells assessed as increase in mono methylation of H3K4; assay type: cell-based; settings: dose 0-24 µmol/L
[6] = tested on: MGC-803; test: Induction of apoptosis in human MGC-803 cells assessed as early apoptotic cells at 16 micromol/L for 48 hrs by annexinV-FITC/PI staining based flow cytometric analysis (reference value: 2.92%); assay type: functional; settings: dose 16 µmol/L, at 16 µM
[7] = molecular target: T1, Lysine-specific histone demethylase 1A; test: Inhibition of LSD1 in human MGC-803 cells assessed as increase in dimethylation of H3K9; assay type: cell-based; settings: dose 0-24 µmol/L
[8] = tested on: MGC-803; test: Induction of mitochondrial membrane potential depolarization in human MGC-803 assessed as viable cells measured at 16 micromol/L for 20 mins by JC-1 staining based flow cytometric analysis (reference value: 0.40%); assay type: functional; settings: MGC-803, 20 min, dose 16 µmol/L, read-out: Activity
[9] = molecular target: T1, Lysine-specific histone demethylase 1A; test: Inhibition of LSD1 in human MGC-803 cells assessed as increase in methylation of H3K4 at 24 micromol/L; assay type: cell-based; settings: dose 24.0 µmol/L
[10] = tested on: MGC-803; test: Antiproliferative activity against human MGC-803 cells assessed as reduction in stemness of cells by measuring tumor ball diameter at 0 to 8 uM after 48 hrs measured after 5 days using 3D-spheroid assay; assay type: functional, cell-based; settings: dose 0-8 µM
[11] = molecular target: T1, Lysine-specific histone demethylase 1A; test: Binding affinity to LSD1 in human MGC-803 cells assessed as thermal solubility measured at 100 uM preincubated for 30 mins and incubated at 42 to 60 degreeC for 3 mins followed by cooled for 180 secs cycle repeated 3 times by CETSA based Western blotting analysis; assay type: cell-based; settings: time 48.0 min
[12] = molecular target: T1, Lysine-specific histone demethylase 1A; test: Inhibition of LSD1 in human MGC-803 cells assessed as increase in methylation of H3K9 at 24 micromol/L; assay type: cell-based; settings: dose 24.0 µmol/L
[13] = tested on: MGC-803; test: Induction of mitochondrial membrane potential depolarization in human MGC-803 assessed as viable cells measured at 8 micromol/L for 20 mins by JC-1 staining based flow cytometric analysis (reference value: 0.40%); assay type: functional; settings: MGC-803, 20 min, dose 8 µmol/L, read-out: Activity
[14] = tested on: MGC-803; test: Induction of apoptosis in human MGC-803 cells assessed as necrotic cells at 24 micromol/L for 48 hrs by annexinV-FITC/PI staining based flow cytometric analysis (reference value: 0.22%); assay type: functional; settings: dose 24 µmol/L, at 24 µM
[15] = molecular target: T2, Amine oxidase [flavin-containing] A (Homo sapiens, UniProt P21397); test: Inhibition of MAO-A (unknown origin) measured by MAO-GloTM method
T2 sequence (P21397 whole entry): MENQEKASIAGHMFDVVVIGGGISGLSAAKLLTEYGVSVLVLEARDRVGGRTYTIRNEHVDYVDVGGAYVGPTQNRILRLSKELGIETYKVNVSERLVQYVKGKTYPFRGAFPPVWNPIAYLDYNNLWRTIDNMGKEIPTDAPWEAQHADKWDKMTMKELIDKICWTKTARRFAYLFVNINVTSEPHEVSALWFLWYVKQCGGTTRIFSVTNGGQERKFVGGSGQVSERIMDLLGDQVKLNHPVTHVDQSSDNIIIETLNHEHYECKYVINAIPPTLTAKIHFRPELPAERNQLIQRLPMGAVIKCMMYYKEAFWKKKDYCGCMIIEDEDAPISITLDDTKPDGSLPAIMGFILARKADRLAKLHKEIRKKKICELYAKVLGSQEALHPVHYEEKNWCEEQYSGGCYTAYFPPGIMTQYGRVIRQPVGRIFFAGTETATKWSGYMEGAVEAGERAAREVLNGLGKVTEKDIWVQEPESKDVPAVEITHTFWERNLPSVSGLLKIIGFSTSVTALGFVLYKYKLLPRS

[16] = tested on: MGC-803; test: Induction of mitochondrial membrane potential depolarization in human MGC-803 assessed as early apoptotic cells measured at 8 micromol/L for 20 mins by JC-1 staining based flow cytometric analysis (reference value: 4.52%); assay type: functional; settings: dose 8 µmol/L, at 8 µM
[17] = molecular target: T3, Amine oxidase [flavin-containing] B (Homo sapiens, UniProt P27338); test: Inhibition of MAO-B (unknown origin) measured by MAO-GloTM method
T3 sequence (P27338 whole entry): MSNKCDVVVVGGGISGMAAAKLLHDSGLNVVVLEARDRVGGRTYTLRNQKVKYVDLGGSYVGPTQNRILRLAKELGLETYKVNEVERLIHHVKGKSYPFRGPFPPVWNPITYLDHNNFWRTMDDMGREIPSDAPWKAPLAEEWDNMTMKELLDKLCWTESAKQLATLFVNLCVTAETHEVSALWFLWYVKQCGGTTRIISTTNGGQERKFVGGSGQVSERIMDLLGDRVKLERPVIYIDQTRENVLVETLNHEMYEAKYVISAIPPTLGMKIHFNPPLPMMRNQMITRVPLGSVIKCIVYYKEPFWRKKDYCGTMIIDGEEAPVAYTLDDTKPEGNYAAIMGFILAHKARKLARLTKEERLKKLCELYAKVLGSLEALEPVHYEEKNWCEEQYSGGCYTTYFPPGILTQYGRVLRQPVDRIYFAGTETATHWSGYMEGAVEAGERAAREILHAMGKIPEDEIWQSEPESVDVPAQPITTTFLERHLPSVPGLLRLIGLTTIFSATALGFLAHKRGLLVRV

[18] = tested on: MGC-803; test: Induction of apoptosis in human MGC-803 cells assessed as morphological change in cell nucleus incubated at 8 to 24 micromol/L for 48 hrs measured by Giemsa staining based microscopic analysis; assay type: functional; settings: dose 8-24 µmol/L
[19] = tested on: MGC-803; test: Induction of apoptosis in human MGC-803 cells assessed as decrease in anti-apoptotic c-IAP1 expression at 8 to 24 micromol/L; assay type: functional, cell-based; settings: dose 8-24 µmol/L
[20] = tested on: MGC-803; test: Induction of mitochondrial membrane potential depolarization in human MGC-803 assessed as late apoptotic cells measured at 8 micromol/L for 20 mins by JC-1 staining based flow cytometric analysis (reference value: 94.98%); assay type: functional; settings: dose 8 µmol/L, at 8 µM
[21] = tested on: MGC-803; test: Induction of mitochondrial membrane potential depolarization in human MGC-803 assessed as late apoptotic cells measured at 16 micromol/L for 20 mins by JC-1 staining based flow cytometric analysis (reference value: 94.98%); assay type: functional; settings: dose 16 µmol/L, at 16 µM
[22] = tested on: KYSE-450; test: Antiproliferative activity against human KYSE-450 cells incubated for 48 hrs measured by MTT assay; assay type: functional, cell-based; settings: KYSE-450, 48 h

inhibition [5]: Dose-Dependent Effect | inhibition [7]: Dose-Dependent Effect | inhibition [9]: Active | Activity [11]: Active | inhibition [12]: Active | IC50 [15]: 1.23 µM | IC50 [17]: 3.82 µM
Structure (SMILES): O=C(c1cccc(CN[C@@H]2C[C@H]2c2ccc(F)c(F)c2)c1)N1CCN(c2ccc(Cl)c(Cl)c2)CC1
Activity [1]: 37.89% | Activity [2]: 17.64% | Activity [3]: 0.35% | Activity [4]: 0.12% | Activity [6]: 31.69% | viability at 16 µM [8]: 1.34% | Activity [10]: inactive | viability at 8 µM [13]: 0.52% | Activity [14]: 0.38% | Activity [16]: 6.3% | Activity [18]: Active | Activity [19]: Active | Activity [20]: 93.18% | Activity [21]: 81% | IC50 [22]: 22.8 µM

— ChEMBL document CHEMBL5346906, “Discovery of novel tranylcypromine-based derivatives as LSD1 inhibitors for gastric cancer treatment” (Eur J Med Chem, 2023)
